Structures are written as SMILES. Some results are limits rather than exact numbers.

PD-1/PD-L1 protein/protein interaction, sequence (Q9NZQ7 19-238): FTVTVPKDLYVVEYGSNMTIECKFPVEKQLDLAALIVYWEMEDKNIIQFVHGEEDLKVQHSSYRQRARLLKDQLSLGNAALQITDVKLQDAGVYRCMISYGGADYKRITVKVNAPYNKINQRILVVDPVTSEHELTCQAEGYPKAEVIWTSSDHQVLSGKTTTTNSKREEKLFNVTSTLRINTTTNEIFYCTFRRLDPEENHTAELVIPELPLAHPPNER

The assay addresses PD-1/PD-L1 protein/protein interaction (Homo sapiens (Human), UniProt Q9NZQ7). The assay can be described thus: PD-1/PD-L1 Homogeneous Time-Resolved Fluorescence (HTRF) binding assay. The following applies: recombinant human PD-L1 (19-238) His-tag 10 nM, human PD-1 (25-167) Fc tag 3 nM, 25° C., PBS pH 7.4. As for the experimental part: Example A. PD-1/PD-L Homogeneous Time-Resolved Fluorescence (HTRF) Binding Assay
The assays were conducted in a standard black 384-well polystyrene plate with a final volume of 20 μL. Inhibitors were first serially diluted in DMSO and then added to the plate wells before the addition of other reaction components. The final concentration of DMSO in the assay was 1%. The assays were carried out at 25° C. in the PBS buffer (pH 7.4) with 0.05% Tween-20 and 0.1% BSA. Recombinant human PD-L1 protein (19-238) with a His-tag at the C-terminus was purchased from AcroBiosystems (PD1-H5229). Recombinant human PD-1 protein (25-167) with Fc tag at the C-terminus was also purchased from AcroBiosystems (PD1-H5257). PD-L1 and PD-1 proteins were diluted in the assay buffer and 10 μL was added to the plate well. Plates were centrifuged and proteins were preincubated with inhibitors for 40 minutes. The incubation was followed by the addition of 10 μL of HTRF detection buffer supplemented with Europium cryptate-labeled anti-human IgG (PerkinElmer-AD0212) specific for Fe and anti-His antibody conjugated to SureLight®-Allophycocyanin (APC, PerkinElmer-AD0059H). After centrifugation, the plate was incubated at 25° C. for 60 min. before reading on a PHERAstar FS plate reader (665 nm/620 nm ratio). Final concentrations in the assay were—3 nM PD1, 10 nM PD-L1, 1 nM europium anti-human IgG and 20 nM anti-His-Allophycocyanin.IC50 determination was performed by fitting the curve of percent control activity versus the log of the inhibitor concentration using the GraphPad Prism 5.0 software.
A general note: TR-FRET usually uses a lanthanide donor and a delayed reading to cut background.
One may read the IC50 as the concentration at which inhibition is half-maximal. On to `Cc1c(-c2ccccc2)cccc1-c1cc2nc(CN3CCCC[C@H]3C(=O)O)cnc2o1` [Example 25, (2S)-1-{[6-(2-methylbiphenyl-3-yl)furo[2,3-b]pyrazin-2-yl]methyl}piperidine-2-carboxylic Acid], for which the half-inhibitory concentration (IC50) fell in the range of 100 to 1000 nM. For the molecule `Cc1c(-c2ccccc2)cccc1-c1nc2c(C)cc(CNCCO)cc2s1` [Example 23, 2-({[4-methyl-2-(2-methylbiphenyl-3-yl)-1,3-benzothiazol-6-yl]methyl}amino)ethanol], the concentration for half-maximal inhibition (IC50) lay in the range of 10 to 100 nM. Next, `Cc1c(-c2ccccc2)cccc1-c1nc2cc(CNCCO)cc(C)c2o1` [Example 12, 2-({[7-methyl-2-(2-methylbiphenyl-3-yl)-1,3-benzoxazol-5-yl]methyl}amino)ethanol]: ≤ 10 nM; `Cc1c(-c2ccccc2)cccc1-c1nc2c(C)cc(CN3CCCC[C@H]3C(=O)O)cc2s1` [Example 22, (2S)-1-{[4-methyl-2-(2-methylbiphenyl-3-yl)-1,3-benzothiazol-6-yl]methyl}piperidine-2-carboxylic Acid]: 10 to 100 nM. Next, `Cc1cc(CN2CCCC[C@H]2C(=O)O)cc2nc(-c3cccc(-c4ccc5c(c4)OCCO5)c3C#N)oc12` [Example 17, (2S)-1-({2-[2-cyano-3-(2,3-dihydro-1,4-benzodioxin-6-yl)phenyl]-7-methyl-1,3-benzoxazol-5-yl}methyl)piperidine-2-carboxylic Acid]: 10 to 100 nM. Regarding `Cc1c(-c2ccccc2)cccc1-c1nc2cc(CN3CCCC[C@H]3C(=O)O)ccc2o1` [Example 7, (2S)-1-{[2-(2-methylbiphenyl-3-yl)-1,3-benzoxazol-5-yl]methyl}piperidine-2-carboxylic Acid], the 50% inhibitory concentration (IC50) was 10 to 100 nM. On to `Cc1c(-c2ccccc2)cccc1-c1nc2cc(CN3CCCC[C@H]3C(=O)O)cc(C)c2o1` [Example 11, (2S)-1-{[7-methyl-2-(2-methylbiphenyl-3-yl)-1,3-benzoxazol-5-yl]methyl}piperidine-2-carboxylic Acid], for which the IC50 is ≤ 10 nM. For `Cc1c(-c2ccccc2)cccc1-c1nc2cc(CNCCO)c(OCCN3CCOCC3)cc2o1` [Example 32, 2-({[2-(2-methylbiphenyl-3-yl)-6-(2-morpholin-4-ylethoxy)-1,3-benzoxazol-5-yl]methyl}amino)ethanol], the IC50 is ≤ 10 nM. To `Cc1c(-c2ccccc2)cccc1-c1cc2nc(CN3CCCC[C@H]3C(=O)O)cc(C)c2o1` [Example 4, (2S)-1-{[7-methyl-2-(2-methylbiphenyl-3-yl)furo[3,2-b]pyridin-5-yl]methyl}piperidine-2-carboxylic Acid] belongs 10 to 100 nM; to `Cc1c(-c2ccccc2)cccc1-c1cc2ccc(CNCCO)nc2o1` [Example 1, 2-({[2-(2-methylbiphenyl-3-yl)furo[2,3-b]pyridin-6-yl]methyl}amino)ethanol], 10 to 100 nM; to `Cc1c(-c2ccccc2)cccc1-c1nc2cc(CNCCO)c(OCC#N)cc2o1` [Example 27, {[5-{[(2-hydroxyethyl)amino]methyl}-2-(2-methylbiphenyl-3-yl)-1,3-benzoxazol-6-yl]oxy}acetonitrile], ≤ 10 nM.

For the molecule `Cc1c(-c2ccccc2)cccc1-c1cc2nc(CN3CCCC[C@H]3C(=O)O)ccc2o1` [Example 20, (2S)-1-{[2-(2-methylbiphenyl-3-yl)furo[3,2-b]pyridin-5-yl]methyl}piperidine-2-carboxylic Acid], the IC50 lay within 100 to 1000 nM.

For `Cc1c(-c2ccc3c(c2)OCCO3)ccnc1-c1nc2cc(CN3CCCC[C@H]3C(=O)O)c(OCC#N)cc2o1` [Example 35, (2S)-1-({6-(cyanomethoxy)-2-[4-(2,3-dihydro-1,4-benzodioxin-6-yl)-3-methylpyridin-2-yl]-1,3-benzoxazol-5-yl}methyl)piperidine-2-carboxylic Acid], the 50% inhibitory concentration (IC50) was 10 to 100 nM. Consider `COc1cc2oc(-c3cccc(-c4ccccc4)c3C)nc2cc1CNCCO` [Example 31, 2-({[6-methoxy-2-(2-methylbiphenyl-3-yl)-1,3-benzoxazol-5-yl]methyl}amino)ethanol], for which the IC50 was ≤ 10 nM. Regarding `Cc1c(-c2ccc3c(c2)OCCO3)cccc1-c1nc2cc(CN3CCCC[C@H]3C(=O)O)cc(C)c2o1` [Example 15, (2S)-1-({2-[3-(2,3-dihydro-1,4-benzodioxin-6-yl)-2-methylphenyl]-7-methyl-1,3-benzoxazol-5-yl}methyl)piperidine-2-carboxylic Acid], the IC50 lay within 10 to 100 nM. As to `Cc1c(-c2ccccc2)cccc1-c1cc2cc(CN3CCCC[C@H]3C(=O)O)nc(C)c2o1` [Example 6, (2S)-1-{[7-methyl-2-(2-methylbiphenyl-3-yl)furo[2,3-c]pyridin-5-yl]methyl}piperidine-2-carboxylic Acid], the half-inhibitory concentration (IC50) fell in the range of 10 to 100 nM.

Regarding `Cc1c(-c2ccccc2)cccc1-c1cc2nc(CNCCO)cnc2o1` [Example 24, 2-({[6-(2-methylbiphenyl-3-yl)furo[2,3-b]pyrazin-2-yl]methyl}amino)ethanol], the half-inhibitory concentration (IC50) was 10 to 100 nM. To `Cc1c(-c2ccccc2)cccc1-c1cc2nc(CNCCO)cc(C)c2o1` [Example 3, 2-({[7-methyl-2-(2-methylbiphenyl-3-yl)furo[3,2-b]pyridin-5-yl]methyl}amino)ethanol] belongs 10 to 100 nM.

`Cc1c(-c2nc3cc(CNCCO)c(OCC#N)cc3o2)cccc1-c1ccccc1F` [Example 39, [(2-(2′-fluoro-2-methylbiphenyl-3-yl)-5-{[(2-hydroxyethyl)amino]methyl}-1,3-benzoxazol-6-yl)oxy]acetonitrile]: the IC50 is ≤ 10 nM.

As for `Cc1c(-c2ccccc2)cccc1-c1nc2cc(CNCCO)c(OCCCC#N)c(C)c2o1` [Example 34, 4-{[5-{[(2-hydroxyethyl)amino]methyl}-7-methyl-2-(2-methylbiphenyl-3-yl)-1,3-benzoxazol-6-yl]oxy}butanenitrile], the IC50 lay in the range of 10 to 100 nM. Next, `Cc1c(-c2ccccc2)cccc1-c1cc2cc(CNCCO)nc(C)c2o1` [Example 5, 2-({[7-methyl-2-(2-methylbiphenyl-3-yl)furo[2,3-c]pyridin-5-yl]methyl}amino)ethanol]: 10 to 100 nM; `Cc1c(-c2ccccc2)cccc1-c1nc2cc(CN3CCCC[C@H]3C(=O)O)c(OCC#N)cc2o1` [Example 26, (2S)-1-{[6-(cyanomethoxy)-2-(2-methylbiphenyl-3-yl)-1,3-benzoxazol-5-yl]methyl}piperidine-2-carboxylic Acid]: ≤ 10 nM. For the molecule `Cc1c(-c2ccccc2)cccc1-c1nc2cc(CNCCO)ncc2o1` [Example 33, 2-({[2-(2-methylbiphenyl-3-yl)[1,3]oxazolo[5,4-c]pyridin-6-yl]methyl}amino)ethanol], the half-maximal inhibitory concentration (IC50) was in the range of 10 to 100 nM.

Take `Cc1c(-c2ccccc2)cccc1-c1nc2cc(CN3CCCC[C@H]3C(=O)O)c(OCCCC#N)cc2o1` [Example 28, (2S)-1-{[6-(3-cyanopropoxy)-2-(2-methylbiphenyl-3-yl)-1,3-benzoxazol-5-yl]methyl}piperidine-2-carboxylic Acid]: the 50% inhibitory concentration (IC50) was ≤ 10 nM. For the molecule `Cc1c(-c2ccccc2)cccc1-c1nc2cc(CNCCO)c(OCc3cccc(C#N)c3)cc2o1` [Example 29, 3-({[5-{[(2-hydroxyethyl)amino]methyl}-2-(2-methylbiphenyl-3-yl)-1,3-benzoxazol-6-yl]oxy}methyl)benzonitrile], the half-maximal inhibitory concentration (IC50) lay within 10 to 100 nM. With `Cc1c(-c2ccccc2)cccc1-c1nc2ccc(CN3CCCC[C@H]3C(=O)O)cc2o1` [Example 38, (2S)-1-{[2-(2-methylbiphenyl-3-yl)-1,3-benzoxazol-6-yl]methyl}piperidine-2-carboxylic Acid], the IC50 was 10 to 100 nM. Next, `Cc1c(-c2ccccc2)cccc1-c1nc2cc(CN3CCCC[C@H]3C(=O)O)ccc2s1` [Example 19, (2S)-1-{[2-(2-methylbiphenyl-3-yl)-1,3-benzothiazol-5-yl]methyl}piperidine-2-carboxylic Acid]: 100 to 1000 nM; `Cc1c(-c2ccccc2)cccc1-c1nc2cc(CNCCO)c(OCc3ccccn3)cc2o1` [Example 30, 2-({[2-(2-methylbiphenyl-3-yl)-6-(pyridin-2-ylmethoxy)-1,3-benzoxazol-5-yl]methyl}amino)ethanol]: ≤ 10 nM; `N#CCOc1cc2oc(-c3cccc(-c4ccc5c(c4)OCCO5)c3C#N)nc2cc1CN1CCCC[C@H]1C(=O)O` [Example 37, (2S)-1-{[2-[2-cyano-3-(2,3-dihydro-1,4-benzodioxin-6-yl)phenyl]-6-(cyanomethoxy)-1,3-benzoxazol-5-yl]methyl}piperidine-2-carboxylic Acid]: 10 to 100 nM. To `Cc1c(-c2ccccc2)cccc1-c1cc2cc(CNCCO)cnc2o1` [Example 10, 2-({[2-(2-methylbiphenyl-3-yl)furo[2,3-b]pyridin-5-yl]methyl}amino)ethanol] belongs 10 to 100 nM; to `Cc1c(-c2ccccc2)cccc1-c1cc2ccc(CN3CCCC[C@H]3C(=O)O)nc2o1` [Example 2, (2S)-1-{[2-(2-methylbiphenyl-3-yl)furo[2,3-b]pyridin-6-yl]methyl}piperidine-2-carboxylic Acid], 100 to 1000 nM.
